From patent US4820695A, “C-20-dihydro-deoxy-(cyclic amino)-derivatives of macrolide antibiotics” (priority 1987, dated 1989)
Values after ≈ are worked out from the molar mass of the structure shown. Where two headings read alike, the source gives them in different places.

Assays:
[1] = system: Pasteurella multocida; test: Pasteurella infection in one-day-old chicks, medicated drinking water (Table XIII); type: in vivo; conditions: Administered in the available drinking water at 2 g/gal
Method: (§1) Many of the C-20 modified derivatives of this invention have also shown in vivo antibacterial activity against infections induced by gram-negative bacteria. Tables XII and XIII summarize the results of tests in which illustrative compounds were evaluated against a Pasteurella infection in one-day-old chicks. The compounds were administered parenterally or orally after challenge of the chicks with Pasteurella multocida (0.1 ml of a 10^-4 dilution of a twenty-hour tryptose broth culture of an avian P. multocida given subcutaneously). In these tests, unless indicated otherwise, all non-medicated infected chicks died within 24 hours of Pasteurella challenge. In the tests summarized in Table XII, the compounds were administered by subcutaneous injection at a dosage of 30 mg/kg, 1 and 4 hours post-challenge of the chicks with P. multocida. In the tests summarized in Table XIII the compounds were administered in medicated drinking water (at a level of 2 g/gal) available from 4 to 20 hours prior to challenge of the chicks with P. multocida and during the 3 -day test period.
^a Administered in the available drinking water at a concentration of […]

[2] = system: Staphylococcus aureus V41; test: MIC, standard agar-dilution assay (Table IX); type: cell-based; conditions: Staphylococcus aureus V41, Penicillin-resistant strain, read-out: MIC
[3] = system: Klebsiella X26; test: MIC, standard agar-dilution assay (Table IX); type: cell-based; conditions: read-out: MIC
[4] = system: Streptococcus pyogenes C203; test: ED50 in mice experimentally infected with S. pyogenes C203 (Table XI); type: in vivo; conditions: Streptococcus pyogenes, doses given 1 and 4 hours postinfection, read-out: ED50
In short: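 Mice infected with S. pyogenes C203 received two doses of compound, 1 and 4 h post-infection. ED50 is the dose in mg/kg (per dose, ×2) protecting 50% of animals.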

[5] = system: Staphylococcus aureus S13E; test: MIC, standard agar-dilution assay (Table IX); type: cell-based; conditions: Staphylococcus aureus, S13E
[6] = system: Haemophilus influenzae 76; test: MIC, standard agar-dilution assay (Table IX); type: cell-based; conditions: Haemophilus influenzae 76, Ampicillin-resistant strain, read-out: MIC
[7] = system: Escherichia coli N10; test: MIC, standard agar-dilution assay (Table IX); type: cell-based; conditions: read-out: MIC
[8] = system: Escherichia coli TEM; test: MIC, standard agar-dilution assay (Table IX); type: cell-based; conditions: read-out: MIC
[9] = system: Streptococcus Group D 2041; test: MIC, standard agar-dilution assay (Table IX); type: cell-based; conditions: GROUPD2041, read-out: MIC
[10] = system: Staphylococcus epidermidis EPI1; test: MIC, standard agar-dilution assay (Table IX); type: cell-based; conditions: Staphylococcus epidermidis EPI1; agar-dilution; read-out: MIC
[11] = system: Pasteurella multocida; test: Pasteurella infection in one-day-old chicks, subcutaneous administration (Table XII); type: in vivo; conditions: Administered subcutaneously, 30 mg/kg × 2, 1 and 4 hours post-challenge
Method: as §1
^a Administered subcutaneously; 30 mg/kg × 2

[12] = system: Staphylococcus epidermidis 222; test: MIC, standard agar-dilution assay (Table IX); type: cell-based; conditions: read-out: MIC
[13] = Titratable groups in 66% aqueous DMF (Tables XIV-XVI); type: physicochemical
Description: ^c Run in 66% aqueous DMF
^d Run in 66% aqueous DMF

[14] = system: Haemophilus influenzae C.L.; test: MIC, standard agar-dilution assay (Table IX); type: cell-based; conditions: Ampicillin-sensitive strain, read-out: MIC
[15] = system: Mycoplasma hyopneumoniae S5972; test: MIC, broth-dilution microtiter test (Table X); type: cell-based; conditions: Mesomycoplasma hyopneumoniae, read-out: MIC
Description: (§2) The MIC's in Table X were obtained using conventional broth-dilution microtiter tests.

[16] = system: Pasteurella multocida 17E; test: MIC, broth-dilution microtiter test (Table X); type: cell-based; conditions: Bovine isolate, read-out: MIC
Description: as §2

[17] = system: Mycoplasma synoviae 40A; test: MIC, broth-dilution microtiter test (Table X); type: cell-based; conditions: Mycoplasmopsis synoviae, read-out: MIC
Description: as §2

[18] = system: Mycoplasma gallisepticum 29C; test: MIC, broth-dilution microtiter test (Table X); type: cell-based; conditions: Mycoplasmoides gallisepticum, read-out: MIC
Description: as §2

[19] = system: Staphylococcus aureus; test: MIC, broth-dilution microtiter test (Table X); type: cell-based; conditions: read-out: MIC
Description: as §2

[20] = system: Pasteurella hemolytica 22C; test: MIC, broth-dilution microtiter test (Table X); type: cell-based; conditions: read-out: MIC
Description: as §2

[21] = system: Pasteurella multocida 60A; test: MIC, broth-dilution microtiter test (Table X); type: cell-based; conditions: Avian isolate, read-out: MIC
Description: as §2

[22] = system: Streptococcus sp. 19F; test: MIC, broth-dilution microtiter test (Table X); type: cell-based; conditions: read-out: MIC
Description: as §2

[23] = system: Staphyloccus aureus X1.1; test: MIC, standard agar-dilution assay (Table IX); type: cell-based, Staphylococcus aureus; conditions: Staphylococcus aureus, read-out: MIC
[24] = system: Streptococcus pneumoniae Park I; test: MIC, standard agar-dilution assay (Table IX); type: cell-based; conditions: Streptococcus pneumoniae Park I; agar-dilution; read-out: MIC
[25] = system: Streptococcus pyogenes C203; test: MIC, standard agar-dilution assay (Table IX); type: cell-based; conditions: read-out: MIC
[26] = system: Staphylococcus aureus X400; test: MIC, standard agar-dilution assay (Table IX); type: cell-based; conditions: Staphylococcus aureus X400, Methicillin-resistant strain, read-out: MIC
[27] = system: Escherichia coli EC14; test: MIC, standard agar-dilution assay (Table IX); type: cell-based; conditions: read-out: MIC
[28] = system: Streptococcus Group D X66; test: MIC, standard agar-dilution assay (Table IX); type: cell-based; conditions: read-out: MIC
[29] = system: Mycoplasma hyorhinis 29E; test: MIC, broth-dilution microtiter test (Table X); type: cell-based; conditions: read-out: MIC
Description: as §2

| Structure (SMILES) | Number of Deaths/Number Treated [1] | MIC [2] [µg/mL] | MIC [3] [µg/mL] | ED50 ([4]; C203, Oral) [mg/kg] | ED50 ([4]; C203, sc, Subcutaneous) [mg/kg] | MIC [5] [µg/mL] | MIC [6] [µg/mL] | MIC [7] [µg/mL] | MIC [8] [µg/mL] | MIC [9] [µg/mL] | MIC [10] [µg/mL] | Number of Deaths/Number Treated [11] | MIC [12] [µg/mL] | MIC [14] [µg/mL] | MIC [15] [µg/mL] | MIC [16] [µg/mL] | MIC [17] [µg/mL] | MIC [18] [µg/mL] | MIC [19] [µg/mL] | MIC [20] [µg/mL] | other results |
| --- | --- | --- | --- | --- | --- | --- | --- | --- | --- | --- | --- | --- | --- | --- | --- | --- | --- | --- | --- | --- | --- |
| CCC1OC(=O)CC(O)C(C)C(OC2OC(C)C(O)C(N(C)C)C2O)C(CCN2CC3(C)CC2CC(C)(C)C3)CC(C)C(=O)C=CC(C)=CC1COC1OC(C)C(O)C(OC)C1OC (stereo not shown) [Compound D21, 20-DH-DO-20-[1,3,3-trimethyl-6-azabicyclo[3.2.1]octan-6-yl]desmycosin] | 3/10 | 1 (≈ 1.1 µM) | 64 (≈ 70.4 µM) | 10 | 1 | 1 (≈ 1.1 µM) | 16 (≈ 17.6 µM) | 64 (≈ 70.4 µM) | 32 (≈ 35.2 µM) | 8 (≈ 8.8 µM) | 1 (≈ 1.1 µM) | 7/10 | 0.5 (≈ 0.55 µM) | 32 (≈ 35.2 µM) | 0.195 (≈ 0.214 µM) | 3.12 (≈ 3.43 µM) | 0.39 (≈ 0.429 µM) | 1.56 (≈ 1.72 µM) | 0.78 (≈ 0.858 µM) | 3.12 (≈ 3.43 µM) | pKa ([13]; Titratable groups): 9.7; pKa ([13]; Titratable groups (first value)): 8; MIC [21]: 3.12 µg/mL (≈ 3.43 µM); MIC [22]: 1.56 µg/mL (≈ 1.72 µM); MIC [23]: 1 µg/mL (≈ 1.1 µM); MIC [24]: 0.5 µg/mL (≈ 0.55 µM); MIC [25]: 0.5 µg/mL (≈ 0.55 µM); MIC [26]: 1 µg/mL (≈ 1.1 µM); MIC [27]: 64 µg/mL (≈ 70.4 µM); MIC [28]: 4 µg/mL (≈ 4.4 µM) |
| CCC1OC(=O)CC(O)C(C)C(OC2OC(C)C(O)C(N(C)C)C2O)C(CCN2CC=CCC2)CC(C)C(=O)C=CC(C)=CC1COC1OC(C)C(O)C(OC)C1OC (stereo not shown) [Compound D22, 20-DH-DO-20-(1,2,3,6-Tetrahydropyridin-1-yl)desmycosin] | 5/10 | 0.5 (≈ 0.596 µM) | 64 (≈ 76.3 µM) | 40 | 0.8 | 0.5 (≈ 0.596 µM) | 8 (≈ 9.53 µM) | > 128 | 64 (≈ 76.3 µM) | 8 (≈ 9.53 µM) | 0.5 (≈ 0.596 µM) | 0/10 | 0.25 (≈ 0.298 µM) | 16 (≈ 19.1 µM) | 1.56 (≈ 1.86 µM) | 12.5 (≈ 14.9 µM) | 0.78 (≈ 0.93 µM) | 0.78 (≈ 0.93 µM) | 1.56 (≈ 1.86 µM) | 3.12 (≈ 3.72 µM) | MIC [29]: 25 µg/mL (≈ 29.8 µM); MIC [21]: 12.5 µg/mL (≈ 14.9 µM); MIC [22]: 3.12 µg/mL (≈ 3.72 µM); MIC [23]: 1 µg/mL (≈ 1.19 µM); MIC [24]: 1 µg/mL (≈ 1.19 µM); MIC [25]: 0.25 µg/mL (≈ 0.298 µM); MIC [26]: 1 µg/mL (≈ 1.19 µM); MIC [27]: > 128 µg/mL; MIC [28]: 8 µg/mL (≈ 9.53 µM) |
| CCC1OC(=O)CC(O)C(C)C(OC2OC(C)C(O)C(N(C)C)C2O)C(CCN2CCC3(CC2)OCCO3)CC(C)C(=O)C=CC(C)=CC1COC1OC(C)C(O)C(OC)C1OC (stereo not shown) [Compound D28, 20-DH-DO-20-[4-(ethylenedioxy)piperidin-1-yl]desmycosin] | 7/10 | 2 (≈ 2.22 µM) | 64 (≈ 71.2 µM) | 77 | 0.75 | 2 (≈ 2.22 µM) | 32 (≈ 35.6 µM) | > 128 | 64 (≈ 71.2 µM) | 8 (≈ 8.9 µM) | 2 (≈ 2.22 µM) | 0/10 | 1 (≈ 1.11 µM) | 32 (≈ 35.6 µM) | 1.56 (≈ 1.74 µM) | 6.25 (≈ 6.95 µM) | 0.195 (≈ 0.217 µM) | 0.097 (≈ 0.108 µM) | 3.12 (≈ 3.47 µM) | 25 (≈ 27.8 µM) | MIC [29]: 25 µg/mL (≈ 27.8 µM); MIC [21]: 25 µg/mL (≈ 27.8 µM); MIC [22]: 3.12 µg/mL (≈ 3.47 µM); MIC [23]: 2 µg/mL (≈ 2.22 µM); MIC [24]: 2 µg/mL (≈ 2.22 µM); MIC [25]: 0.5 µg/mL (≈ 0.556 µM); MIC [26]: 4 µg/mL (≈ 4.45 µM); MIC [27]: > 128 µg/mL; MIC [28]: 8 µg/mL (≈ 8.9 µM) |
